Test results reported in ChEMBL document CHEMBL1201862, “PubChem BioAssay data set” (2004).
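Cultured in 96-well plates, cells were exposed to test compound for 48 hours across five concentrations. Abbreviation: GI50, concentration required for 50% inhibition of growth.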 Activity calls are given as the source filed them. Rule as the data show it: active = GI50 up to about 1.1 µM and inactive = higher.

Experiments:
Test in all cases: growth of human tumour cells (NCI), 48 h
SK-MEL-5 = system: SK-MEL-5
CAKI-1 = system: CAKI-1
RPMI-8226 = system: RPMI-8226
OVCAR-8 = system: OVCAR-8
COLO 205 = system: COLO 205
HT-29 = system: HT-29
U-251 = system: U-251
KM12 = system: KM12
OVCAR-5 = system: OVCAR-5
BT-549 = system: BT-549
MDA-N = system: MDA-N
M14 = system: M14
SNB-75 = system: SNB-75
K562 = system: K562
Hs-578T = system: Hs-578T
NCI-H522 = system: NCI-H522
NCI-H460 = system: NCI-H460
EKVX = system: EKVX
SF-539 = system: SF-539
HCC 2998 = system: HCC 2998

Measured: GI50

CN1C2CCC1CN(CCOC(c1ccc(F)cc1)c1ccc(F)cc1)C2
inactive: SK-MEL-5 14.4 µM | CAKI-1 45.8 µM | RPMI-8226 23.9 µM | OVCAR-8 32.4 µM | COLO 205 15.3 µM | HT-29 19.5 µM | U-251 26.1 µM | KM12 21.8 µM | OVCAR-5 56.6 µM | BT-549 43.4 µM | MDA-N 36 µM | M14 20.1 µM | SNB-75 26.5 µM | K562 20 µM | Hs-578T 42.7 µM | NCI-H522 43.6 µM | NCI-H460 20.9 µM | EKVX 23.8 µM | SF-539 16.6 µM

COc1ccc2c(n1)Sc1nc3ccccc3nc1N2
inactive: SK-MEL-5 > 100 µM | CAKI-1 88.3 µM | RPMI-8226 > 100 µM | OVCAR-8 16.2 µM | COLO 205 > 100 µM | HT-29 85.7 µM | U-251 19.4 µM | KM12 55.7 µM | OVCAR-5 56.1 µM | BT-549 41.6 µM | M14 > 100 µM | SNB-75 25.5 µM | K562 30.3 µM | Hs-578T 27.9 µM | NCI-H522 78 µM | NCI-H460 63.1 µM | EKVX 12.6 µM | SF-539 14.4 µM

Nc1ccc(C(=O)O)cc1.Nc1nc(N)c2nc[nH]c2n1
inactive: SK-MEL-5 21.5 µM | CAKI-1 13.6 µM | RPMI-8226 12.1 µM | OVCAR-8 22.1 µM | COLO 205 25.9 µM | HT-29 20.4 µM | U-251 43.9 µM | KM12 22.3 µM | OVCAR-5 17.1 µM | BT-549 78 µM | MDA-N 13.9 µM | M14 10.7 µM | SNB-75 2.44 µM | K562 20 µM | Hs-578T > 100 µM | NCI-H522 17.8 µM | NCI-H460 21.6 µM | EKVX 14.5 µM | SF-539 > 100 µM

Cc1ccc(S(=O)(=O)OC2=C/C(=N\c3onc(C)c3C)c3ccccc3C2=O)cc1
inactive: SK-MEL-5 18.3 µM | CAKI-1 20 µM | RPMI-8226 7.96 µM | OVCAR-8 18.3 µM | COLO 205 86.5 µM | HT-29 34.2 µM | U-251 4 µM | KM12 20.2 µM | OVCAR-5 20.3 µM | BT-549 33.7 µM | MDA-N 25.2 µM | M14 18.8 µM | SNB-75 45.7 µM | K562 4.41 µM | Hs-578T 38.5 µM | NCI-H522 7.46 µM | NCI-H460 32.8 µM | EKVX > 100 µM | SF-539 31.8 µM

COc1cc2c(/C=C3/C(=O)Nc4cccc(Cl)c43)c(Cl)[nH]c2cc1C
inactive: SK-MEL-5 3.5 µM | CAKI-1 1.86 µM | RPMI-8226 1.93 µM | OVCAR-8 2.54 µM | COLO 205 1.95 µM | HT-29 1.94 µM | U-251 1.78 µM | KM12 1.7 µM | OVCAR-5 4.02 µM | BT-549 1.46 µM | M14 2.23 µM | SNB-75 1.44 µM | K562 1.76 µM | Hs-578T 1.98 µM | NCI-H522 2.32 µM | NCI-H460 1.72 µM | SF-539 1.6 µM

O=C(O)c1ccc(N/C(=C(/C(Cl)=C(Cl)Cl)[N+](=O)[O-])n2nnc3ccccc32)cc1
inactive: CAKI-1 > 100 µM | RPMI-8226 > 100 µM | OVCAR-8 > 100 µM | COLO 205 > 100 µM | HT-29 > 100 µM | U-251 > 100 µM | KM12 > 100 µM | OVCAR-5 > 100 µM | BT-549 > 100 µM | MDA-N > 100 µM | M14 > 100 µM | K562 > 100 µM | Hs-578T > 100 µM | NCI-H460 > 100 µM | HCC 2998 > 100 µM | EKVX > 100 µM | SF-539 > 100 µM

O=C(O)[C@@]1(Cc2ccc(O)cc2)C[C@@H]2Cc3ccccc3N2N1
inactive: SK-MEL-5 > 100 µM | CAKI-1 > 100 µM | RPMI-8226 > 100 µM | OVCAR-8 > 100 µM | COLO 205 > 100 µM | HT-29 > 100 µM | U-251 > 100 µM | KM12 > 100 µM | OVCAR-5 > 100 µM | BT-549 > 100 µM | MDA-N > 100 µM | M14 > 100 µM | Hs-578T > 100 µM | NCI-H522 > 100 µM | EKVX > 100 µM | SF-539 > 100 µM

CN1C(=S)C(c2ccccc2)Sc2ccccc21 (centres undefined)
inactive: SK-MEL-5 34.8 µM | CAKI-1 > 100 µM | RPMI-8226 > 100 µM | OVCAR-8 43.3 µM | COLO 205 47.4 µM | HT-29 > 10 µM | U-251 > 100 µM | KM12 63.7 µM | OVCAR-5 82 µM | BT-549 42.7 µM | MDA-N 77.8 µM | M14 > 100 µM | SNB-75 35.7 µM | K562 20.7 µM | Hs-578T 35.6 µM | NCI-H522 54.3 µM | NCI-H460 27.8 µM | EKVX 14 µM

NC(CC1=CS(=O)(=O)c2ccc(Cl)cc21)C(=O)O (centres undefined)
inactive: SK-MEL-5 > 100 µM | CAKI-1 > 100 µM | RPMI-8226 > 100 µM | OVCAR-8 > 100 µM | COLO 205 > 100 µM | HT-29 > 100 µM | U-251 > 100 µM | KM12 > 100 µM | OVCAR-5 > 100 µM | BT-549 > 100 µM | MDA-N > 100 µM | M14 > 100 µM | SNB-75 20.6 µM | K562 > 100 µM | Hs-578T 70.5 µM | NCI-H522 > 100 µM | NCI-H460 89.9 µM | EKVX > 100 µM | SF-539 > 100 µM

COc1ccc(N2C(=O)CC(Cl)C2=O)cc1 (centres undefined)
inactive: SK-MEL-5 > 100 µM | RPMI-8226 13.5 µM | OVCAR-8 16.6 µM | COLO 205 16.4 µM | HT-29 17.8 µM | U-251 > 100 µM | OVCAR-5 18.2 µM | BT-549 > 100 µM | M14 > 100 µM | SNB-75 > 100 µM | K562 6.05 µM | Hs-578T > 100 µM | NCI-H522 17.5 µM | NCI-H460 > 100 µM | HCC 2998 20.4 µM | EKVX > 100 µM | SF-539 18.2 µM

NCCN1C(=O)c2cc(Cl)c(Cl)cc2C1(O)c1ccc(Cl)cc1 (centres undefined)
inactive: SK-MEL-5 1.6 µM | CAKI-1 2.54 µM | RPMI-8226 2.44 µM | OVCAR-8 2.03 µM | COLO 205 1.65 µM | HT-29 1.89 µM | U-251 1.74 µM | KM12 2.32 µM | OVCAR-5 3.33 µM | BT-549 3.62 µM | MDA-N 1.85 µM | M14 1.77 µM | SNB-75 2.28 µM | K562 1.91 µM | Hs-578T 2.74 µM | NCI-H460 1.79 µM | EKVX 2.23 µM | SF-539 1.7 µM

C1=C2C3=[N+](CCCCC3)CC2Cc2ccsc21 (centres undefined)
inactive: SK-MEL-5 53 µM | CAKI-1 > 100 µM | OVCAR-8 76.6 µM | COLO 205 40.6 µM | HT-29 32.8 µM | U-251 17.2 µM | KM12 30.4 µM | OVCAR-5 > 100 µM | BT-549 51.2 µM | MDA-N > 100 µM | M14 > 100 µM | SNB-75 29.9 µM | K562 > 100 µM | Hs-578T > 100 µM | NCI-H522 39.7 µM | NCI-H460 29.9 µM | EKVX 53.5 µM

O=C(O)C1C2C=CC(O2)C1C(=O)Nc1ncccn1 (centres undefined)
inactive: SK-MEL-5 > 100 µM | CAKI-1 > 100 µM | RPMI-8226 > 100 µM | OVCAR-8 > 100 µM | COLO 205 > 100 µM | HT-29 > 100 µM | U-251 > 100 µM | KM12 > 100 µM | OVCAR-5 > 100 µM | BT-549 > 100 µM | MDA-N > 100 µM | M14 > 100 µM | SNB-75 > 100 µM | K562 97.9 µM | Hs-578T > 100 µM | NCI-H522 > 100 µM | NCI-H460 > 100 µM | EKVX > 100 µM | SF-539 > 100 µM

COc1cc2c(cc1OC)[C@@H]1[C@H](C#N)C(=O)C(C)(C)N1CC2
inactive: SK-MEL-5 > 100 µM | CAKI-1 > 100 µM | RPMI-8226 53.7 µM | OVCAR-8 > 100 µM | COLO 205 > 100 µM | HT-29 > 100 µM | U-251 > 100 µM | KM12 > 100 µM | OVCAR-5 > 100 µM | BT-549 > 100 µM | MDA-N > 100 µM | M14 > 100 µM | K562 > 100 µM | Hs-578T > 100 µM | NCI-H522 > 100 µM | NCI-H460 > 100 µM | HCC 2998 > 100 µM | EKVX > 100 µM

CCOC(=O)N/N=C(/N)Cc1ccc(Cl)cc1
inactive: SK-MEL-5 > 100 µM | RPMI-8226 > 100 µM | OVCAR-8 > 100 µM | COLO 205 > 100 µM | HT-29 > 100 µM | U-251 > 100 µM | KM12 > 100 µM | OVCAR-5 > 100 µM | BT-549 > 100 µM | MDA-N > 100 µM | M14 > 100 µM | SNB-75 > 100 µM | K562 > 100 µM | NCI-H522 > 100 µM | HCC 2998 > 100 µM | EKVX > 100 µM | SF-539 > 100 µM

Cc1ccccc1/N=N/c1ccc(/N=N/c2c(O)ccc3ccccc23)c(C)c1 [SCARLET RED]
inactive: SK-MEL-5 > 100 µM | CAKI-1 > 100 µM | RPMI-8226 > 100 µM | OVCAR-8 > 100 µM | COLO 205 > 100 µM | HT-29 > 100 µM | U-251 > 100 µM | KM12 > 100 µM | OVCAR-5 > 100 µM | BT-549 > 100 µM | M14 > 100 µM | SNB-75 72.1 µM | K562 > 100 µM | Hs-578T 44.2 µM | NCI-H522 > 100 µM | EKVX > 100 µM
